ChEMBL document CHEMBL1201862, “PubChem BioAssay data set” (2004)
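Growth conditions: 96-well plates. Treatment: test compound, 48 hours, 5 concentrations. Analysis: linear interpolation between bracketing concentrations; unreached endpoints set to highest concentration. GI50: concentration for 50% inhibition of growth.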 Active and inactive are the calls of the source. No stated cut-off is given here; in the data, active = GI50 up to about 1.1 µM and inactive = higher.

Experiments:
Test in all cases: DTP human tumour cell line panel, 48 h
[1] = tested on: SK-MEL-5
[2] = tested on: NCI-H522
[3] = tested on: K562
[4] = tested on: CAKI-1
[5] = tested on: A498
[6] = tested on: RPMI-8226
[7] = tested on: RXF 393
[8] = tested on: HCC 2998
[9] = tested on: OVCAR-4
[10] = tested on: HL-60
[11] = tested on: SK-OV-3
[12] = tested on: M14
[13] = tested on: 786-0
[14] = tested on: UO-31
[15] = tested on: KM12
[16] = tested on: PC-3
[17] = tested on: HCT-15
[18] = tested on: MCF7
[19] = tested on: Hs-578T
[20] = tested on: BT-549

Row | SMILES | GI50 [1] | GI50 [2] | GI50 [3] | GI50 [4] | GI50 [5] | GI50 [6] | GI50 [7] | GI50 [8] | GI50 [9] | GI50 [10] | GI50 [11] | GI50 [12] | GI50 [13] | GI50 [14] | GI50 [15] | GI50 [16] | GI50 [17] [µM] | GI50 [18] | GI50 [19] | GI50 [20]
1 | O=C(O)CSc1nnc(-c2ccco2)[nH]1 | > 100 µM (inactive) | > 100 µM (inactive) | > 100 µM (inactive) | > 100 µM (inactive) | > 100 µM (inactive) | > 100 µM (inactive) | > 100 µM (inactive) | > 100 µM (inactive) | > 100 µM (inactive) | > 100 µM (inactive) | > 100 µM (inactive) | > 100 µM (inactive) | > 100 µM (inactive) | > 100 µM (inactive) | > 100 µM (inactive) | – | – | – | – | –
2 | Cc1cc(C23OC4COC(C)(C)OC4C2OC(C)(C)O3)nc2ccccc12 (stereo not drawn) | > 100 µM (inactive) | > 100 µM (inactive) | 44.1 µM (inactive) | – | – | > 100 µM (inactive) | > 100 µM (inactive) | > 100 µM (inactive) | > 100 µM (inactive) | 33.4 µM (inactive) | > 100 µM (inactive) | > 100 µM (inactive) | > 100 µM (inactive) | > 100 µM (inactive) | > 100 µM (inactive) | 78.2 µM (inactive) | > 100 | > 100 µM (inactive) | 82.2 µM (inactive) | –
3 | CCCCCC(=O)Nc1nc(O)c2[nH]cnc2n1 | > 100 µM (inactive) | 52.4 µM (inactive) | > 100 µM (inactive) | > 100 µM (inactive) | > 100 µM (inactive) | > 100 µM (inactive) | > 100 µM (inactive) | > 100 µM (inactive) | > 100 µM (inactive) | > 100 µM (inactive) | > 100 µM (inactive) | > 100 µM (inactive) | > 100 µM (inactive) | > 100 µM (inactive) | > 100 µM (inactive) | – | > 100 | – | – | –
4 | COC(=O)c1c(C)oc2ccc(OC(C)=O)cc12 | > 100 µM (inactive) | > 100 µM (inactive) | > 100 µM (inactive) | > 100 µM (inactive) | > 100 µM (inactive) | > 100 µM (inactive) | > 100 µM (inactive) | 30.5 µM (inactive) | > 100 µM (inactive) | > 100 µM (inactive) | > 100 µM (inactive) | > 100 µM (inactive) | > 100 µM (inactive) | 33.6 µM (inactive) | > 100 µM (inactive) | – | > 100 | – | – | –
5 | CC(=O)CCC(=O)CC(O)(C(F)(F)F)C(F)(F)F | 18.1 µM (inactive) | – | 15.3 µM (inactive) | – | 5.01 µM (inactive) | 17.2 µM (inactive) | 18.6 µM (inactive) | 18.4 µM (inactive) | 19.7 µM (inactive) | 18.5 µM (inactive) | > 10 µM (inactive) | 19.9 µM (inactive) | 16.2 µM (inactive) | 14.5 µM (inactive) | 15.9 µM (inactive) | – | 20.1 | 18.8 µM (inactive) | 14.6 µM (inactive) | –
6 | Oc1ccc(/C=N/NC(=S)Nc2cccnc2)nc1 | 9.59 µM (inactive) | 1.97 µM (inactive) | 3.99 µM (inactive) | 20.7 µM (inactive) | 33.7 µM (inactive) | 16.7 µM (inactive) | – | > 51.1 µM (inactive) | > 76.6 µM (inactive) | 3.76 µM (inactive) | 8.99 µM (inactive) | 6.1 µM (inactive) | 8.43 µM (inactive) | 2.78 µM (inactive) | 6.71 µM (inactive) | > 22 µM (inactive) | 5.27 | 7.89 µM (inactive) | – | –
7 | c1cc(C2=NCCO2)c2ccsc2c1 | > 100 µM (inactive) | > 100 µM (inactive) | > 100 µM (inactive) | > 100 µM (inactive) | > 100 µM (inactive) | > 100 µM (inactive) | > 100 µM (inactive) | > 100 µM (inactive) | > 100 µM (inactive) | > 100 µM (inactive) | > 100 µM (inactive) | > 100 µM (inactive) | > 100 µM (inactive) | > 100 µM (inactive) | > 100 µM (inactive) | > 100 µM (inactive) | > 100 | > 100 µM (inactive) | 22.7 µM (inactive) | –
8 | COc1cc(/C=C/C(=O)c2ccc(NS(=O)(=O)c3cc([N+](=O)[O-])ccc3C)cc2)cc(OC)c1OC | 4.18 µM (inactive) | – | 2.88 µM (inactive) | 3.74 µM (inactive) | – | 1.96 µM (inactive) | 2.81 µM (inactive) | – | 3.19 µM (inactive) | 3.37 µM (inactive) | 4.01 µM (inactive) | 2.99 µM (inactive) | 2.74 µM (inactive) | 5.82 µM (inactive) | 2.62 µM (inactive) | 5.9 µM (inactive) | 3.04 | 2.77 µM (inactive) | – | 4.27 µM (inactive)
9 | COc1ccc(C2=C[C@]3(O)CCCN3C[C@@H]2c2ccc(OC)c(OC)c2)cc1 | < 0.0001 µM (active) | < 0.0001 µM (active) | < 0.0001 µM (active) | < 0.0001 µM (active) | < 0.0001 µM (active) | > 0.01 µM (active) | > 0.01 µM (active) | > 0.01 µM (active) | > 0.01 µM (active) | < 0.0001 µM (active) | < 0.0001 µM (active) | < 0.0001 µM (active) | < 0.0001 µM (active) | < 0.0001 µM (active) | < 0.0001 µM (active) | – | < 0.0001 | – | – | –
